Columns and labels:
[1] = target: T1, BChE (butyrylcholinesterase from horse serum) (Equus caballus, UniProt P81908); experiment: Ellman assay, […] nm; assay type: biochemical; details: butyrylthiocholine chloride, DTNB, pH 8.0, room conditions, 15 min preincubation
T1 construct: native enzyme preparation from horse serum

[2] = target: T2, Tyrosinase (tyrosinase mushroom); experiment: spectrophotometric dopachrome assay, […] nm; assay type: biochemical, Agaricus bisporus; details: L-DOPA, pH 6.8, 37 °C, 10 min preincubation
T2 construct: gene PPO3; native mushroom tyrosinase preparation, isoenzyme mixture not resolved; only 'mushroom' given

[3] = target: AChE (acetylcholinesterase from eel) (Electrophorus electricus, UniProt O42275); details: acetylthiocholine-type substrate (AcI [sic]), DTNB, pH 8.0, 25 °C, 15 min preincubation
Sequence of AChE (acetylcholinesterase from eel) (O42275 24-633): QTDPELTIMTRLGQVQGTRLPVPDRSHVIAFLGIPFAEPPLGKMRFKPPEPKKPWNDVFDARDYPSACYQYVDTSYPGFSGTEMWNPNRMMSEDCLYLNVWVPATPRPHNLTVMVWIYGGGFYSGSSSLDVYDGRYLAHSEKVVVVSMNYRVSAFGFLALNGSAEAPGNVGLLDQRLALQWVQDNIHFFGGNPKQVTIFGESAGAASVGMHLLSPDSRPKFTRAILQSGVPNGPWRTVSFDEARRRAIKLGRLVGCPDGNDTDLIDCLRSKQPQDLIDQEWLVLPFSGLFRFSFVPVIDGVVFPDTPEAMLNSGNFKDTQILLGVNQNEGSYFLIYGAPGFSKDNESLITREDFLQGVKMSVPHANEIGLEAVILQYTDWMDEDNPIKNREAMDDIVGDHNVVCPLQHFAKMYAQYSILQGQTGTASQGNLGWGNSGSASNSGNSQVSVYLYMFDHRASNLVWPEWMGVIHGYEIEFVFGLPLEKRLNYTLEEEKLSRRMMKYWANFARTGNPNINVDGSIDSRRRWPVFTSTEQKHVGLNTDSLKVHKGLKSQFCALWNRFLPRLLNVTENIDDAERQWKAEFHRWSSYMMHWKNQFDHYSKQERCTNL

T1 sequence (P81908 whole entry): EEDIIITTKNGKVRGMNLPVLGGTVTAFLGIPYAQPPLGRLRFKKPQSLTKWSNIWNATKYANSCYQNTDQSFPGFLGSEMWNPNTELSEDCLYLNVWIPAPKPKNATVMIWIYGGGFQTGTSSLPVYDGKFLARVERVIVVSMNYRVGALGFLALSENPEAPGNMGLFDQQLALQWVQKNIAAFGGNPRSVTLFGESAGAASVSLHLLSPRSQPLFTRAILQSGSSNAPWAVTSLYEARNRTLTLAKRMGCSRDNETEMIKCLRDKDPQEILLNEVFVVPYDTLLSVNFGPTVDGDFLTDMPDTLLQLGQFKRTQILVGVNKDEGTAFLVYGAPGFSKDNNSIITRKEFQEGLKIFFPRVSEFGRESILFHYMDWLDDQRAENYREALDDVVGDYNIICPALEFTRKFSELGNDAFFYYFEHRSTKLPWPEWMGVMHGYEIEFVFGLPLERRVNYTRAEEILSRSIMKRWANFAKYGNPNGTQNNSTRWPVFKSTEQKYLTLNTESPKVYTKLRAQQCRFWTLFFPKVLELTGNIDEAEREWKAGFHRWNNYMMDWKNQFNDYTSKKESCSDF

SMILES | Anticholinesterase Activity / BChE assay (IC50 μM/mL) [1] | Tyrosinase activity (IC50 mM/mL) [2] | Anticholinesterase Activity / AChE assay (IC50 μM/mL) (IC50 μM/mL) [3]
COc1cc(C=NNC(=O)c2ccc(C(F)(F)F)cc2)cc(OC)c1O [7i, N′-(4-hydroxy-3,5-dimethoxybenzylidene)-4-(trifluoromethyl)benzohydrazide] | 64.09 ± 0.30 μM/mL | 49.73 ± 0.12 mM/mL | 51.08 ± 0.41 μM/mL
COc1cc(C=NNC(=O)c2cccc(C(F)(F)F)c2)cc(OC)c1O [7h, N′-(4-hydroxy-3,5-dimethoxybenzylidene)-3-(trifluoromethyl)benzohydrazide] | 88.70 ± 0.77 μM/mL | 56.88 ± 0.37 mM/mL | 73.75 ± 0.34 μM/mL
COc1ccc(C(=O)NN=Cc2cc(OC)c(O)c(OC)c2)cc1 [7e, N′-(4-hydroxy-3,5-dimethoxybenzylidene)-4-methoxybenzohydrazide] | 96.33 ± 0.61 μM/mL | 10.15 ± 0.04 mM/mL | 75.01 ± 0.94 μM/mL
COc1cc(C=NNC(=O)c2ccc(F)cc2)cc(OC)c1O [7d, 4-fluoro-N′-(4-hydroxy-3,5-dimethoxybenzylidene)benzohydrazide] | 109.44 ± 0.09 μM/mL | 64.38 ± 0.99 mM/mL | 88.37 ± 0.11 μM/mL
COc1cc(C=NNC(=O)c2ccc(OC(F)(F)F)cc2)cc(OC)c1O [7m, N′-(4-hydroxy-3,5-dimethoxybenzylidene)-4-(trifluoromethoxy)benzohydrazide] | 77.26 ± 0.42 μM/mL | 36.62 ± 0.56 mM/mL | 62.04 ± 0.39 μM/mL
COc1cc(C=NNC(=O)c2cccc(OC(F)(F)F)c2)cc(OC)c1O [7l, N′-(4-hydroxy-3,5-dimethoxybenzylidene)-3-(trifluoromethoxy)benzohydrazide] | 80.62 ± 0.36 μM/mL | 24.30 ± 0.78 mM/mL | 68.09 ± 0.02 μM/mL
COc1cc(C=NNC(=O)c2ccccc2OC(F)(F)F)cc(OC)c1O [7k, N′-(4-hydroxy-3,5-dimethoxybenzylidene)-2-(trifluoromethoxy)benzohydrazide] | 69.18 ± 0.98 μM/mL | 29.78 ± 0.43 mM/mL | 59.31 ± 0.77 μM/mL
COc1cc(C=NNC(=O)c2ccc([N+](=O)[O-])cc2)cc(OC)c1O [7f, N′-(4-hydroxy-3,5-dimethoxybenzylidene)-4-nitrobenzohydrazide] | 52.39 ± 0.49 μM/mL | 18.22 ± 0.35 mM/mL | 40.07 ± 0.25 μM/mL
COc1cc(C=NNC(=O)c2ccccc2C(F)(F)F)cc(OC)c1O [7g, N′-(4-hydroxy-3,5-dimethoxybenzylidene)-2-(trifluoromethyl)benzohydrazide] | 83.08 ± 0.34 μM/mL | 61.07 ± 0.55 mM/mL | 70.13 ± 0.89 μM/mL
COc1cc(C=NNC(=O)c2cc(C(F)(F)F)cc(C(F)(F)F)c2)cc(OC)c1O [7j, N′-(4-hydroxy-3,5-dimethoxybenzylidene)-3,5-bis-(trifluoromethyl)benzohydrazide] | 57.30 ± 0.87 μM/mL | 40.08 ± 0.86 mM/mL | 44.83 ± 0.12 μM/mL
COc1cc(C=NNC(=O)c2ccc(Br)cc2)cc(OC)c1O [7b, 4-bromo-N′-(4-hydroxy-3,5-dimethoxybenzylidene)benzohydrazide] | 116.82 ± 0.66 μM/mL | 82.08 ± 1.09 mM/mL | 93.00 ± 1.11 μM/mL
COc1cc(C=NNC(=O)c2ccccc2)cc(OC)c1O [7a, N′-(4-hydroxy-3,5-dimethoxybenzylidene)benzohydrazide] | 122.04 ± 0.87 μM/mL | 88.73 ± 0.26 mM/mL | 101.04 ± 0.49 μM/mL
COc1cc(C=NNC(=O)c2ccc(Cl)cc2)cc(OC)c1O [7c, 4-chloro-N′-(4-hydroxy-3,5-dimethoxybenzylidene)benzohydrazide] | 102.87 ± 0.48 μM/mL | 70.91 ± 0.24 mM/mL | 82.14 ± 0.56 μM/mL
